Usually solubility stands for the concentration that dissolves in the medium under given conditions. The low end stands for a poorly soluble substance, the high end for a readily soluble substance.

“Also recorded” adds a separate entry of the source. Where only a bound is given, the exact number is not on record here.

From patent publication US10556863B1, “Crystalline form of (R)-4-hydroxy-2-oxo-1-pyrrolidineacetamide, preparation method therefor and use thereof” (CHONGQING RUNZE PHARMACEUTICAL COMPANY LIMITED, priority 2016, dated 2020) come the findings set out here.

One series is described as follows: solubility in water. The class given is physicochemical.
A short description of series [1]: variable-temperature powder X-ray diffraction, crystal form stability at high temperatures. Particulars: heated from 30° C. to 80° C.; powder X-ray diffraction at 35, 45, 55, 65 and 75° C. The class given is physicochemical. As to the method: The crystalline form I of (R)-4-hydroxy-2-oxo-1-pyrrolidineacetamide of the invention was placed on a single crystal silicon sample stage, heated from 30° C. to 80° C., and subjected to powder X-ray diffraction measurement at 35° C., 45° C., 55° C., 65° C. and 75° C., respectively. […] It can be seen that the crystalline form I of (R)-4-hydroxy-2-oxo-1-pyrrolidineacetamide of the invention has good stability at high temperatures. When the crystalline form I of (R)-4-hydroxy-2-oxo-1-pyrrolidineacetamide of the invention is used for storage or formulation processing, the requirements on processing and storage temperatures are reduced.

With `NC(=O)CN1C[C@H](O)CC1=O` [crystalline form I, (R)-4-hydroxy-2-oxo-1-pyrrolidineacetamide], in the series “solubility in water”, the solubility is at least 90 mg/mL. For the same compound, the “crystal transformation on heating (stability at high temperatures)” value in series [1] is “does not show a phenomenon of crystal transformation; also recorded: does not exhibit crystal transformation phenomenon”.
